Laboratory results taken from paper PMC8507260, “A2E-induced inflammation and angiogenesis in RPE cells in vitro are modulated by PPAR-α, -β/δ, -γ, and RXR antagonists and by norbixin” (Aging (Albany NY), 2021).

Target: T1, PPAR-β/δ (Homo sapiens, UniProt Q03181)
T1 sequence (Q03181 1-441): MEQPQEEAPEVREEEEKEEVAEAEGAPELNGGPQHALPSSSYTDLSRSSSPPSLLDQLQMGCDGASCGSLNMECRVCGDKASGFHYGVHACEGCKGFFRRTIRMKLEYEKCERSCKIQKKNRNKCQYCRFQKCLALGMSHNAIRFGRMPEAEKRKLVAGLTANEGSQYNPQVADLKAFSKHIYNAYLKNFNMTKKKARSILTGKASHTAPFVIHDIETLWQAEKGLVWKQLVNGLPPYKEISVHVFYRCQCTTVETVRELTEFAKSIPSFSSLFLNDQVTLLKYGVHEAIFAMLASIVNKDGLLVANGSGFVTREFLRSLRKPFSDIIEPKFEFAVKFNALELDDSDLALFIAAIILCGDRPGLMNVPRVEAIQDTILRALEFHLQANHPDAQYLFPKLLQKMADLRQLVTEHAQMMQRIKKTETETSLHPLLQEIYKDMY
Assay: In vitro antagonist assay on PPAR-β/δ
Assay type: biochemical
Description: The binding and activity of norbixin on PPARs remains controversial, thus, firstly, we performed competition experiments in vitro between norbixin and [^3H] GW7647, an agonist of PPAR-α, and [^3H] rosiglitazone, an agonist of PPAR-γ. […] Secondly, we tested whether norbixin could induce the transactivation of PPAR-α, -β/δ or -γ in the context of RPE cells in vitro by co-transfecting porcine RPE cells with a plasmid expressing each of the full-length PPAR isoforms and a plasmid expressing luciferase under the control of the PPAR response element. […] Then, we wanted to determine if norbixin could modulate the transactivation of PPAR isoforms induced by specific agonists.

- IC50: 9.9 µM
SMILES: CC(/C=C/C=C(C)/C=C/C(=O)O)=C\C=C\C=C(C)\C=C\C=C(C)\C=C\C(=O)O (stereo in doubt) [norbixin, 9’-cis-norbixin]
